This series concerns MDR1-MDCK cell monolayers. Kind of series: MDR1-MDCK monolayer permeability assay. The format is in vitro ADME. The note with it: judged from MDR1-MDCK efflux ratio.

SMILES strings stand for the structures.

Consider `N#CCNC(=O)[C@H](Cc1c[nH]cn1)NC(=O)OCc1ccccc1` [Compound 10], for which the “P-gp mediated efflux (in words)” value is reported as “subject to P-gp mediated efflux”.

Values taken from article PMC3325374 (Journal of Medicinal Chemistry, 2012).
